Earlier results on two compounds are cited in patent US5177084A, “Therapeutic use of substituted benzenes, formulations thereof and novel substituted benzenes” (Merck Sharp & Dohme Ltd., priority 1989, dated 1993).

For the series the following is noted: literature report, test not specified.

In the case of `O=C(O)C(=O)O.OC1(c2ccc(Cl)cc2)CN2CCC1CC2` (centres unmarked) [Example 4, 3-(4-Chlorophenyl)-3-hydroxy quinuclidine Hydrogen Oxalate], the pharmacological activity entry was “did not display pharmacological activity”.

`COc1ccc(C2(O)CN3CCC2CC3)cc1.O=C(O)C(=O)O` (centres unmarked) [Example 2, 3-Hydroxy-3-(4-Methoxyphenyl)quinuclidine Hydrogen Oxalate]: the pharmacological activity result is reported as “did not display pharmacological activity”.
